Literature values as cited in patent US5196437A, “Method for treating hepatic diseases and regenerating liver tissue using FK 506 and related compounds” (Fujisawa Pharmaceutical Company, Ltd., priority 1990, dated 1993).

Key:
[1] = tested on: liver; conditions: literature (Starzl et al); cited from earlier work
[2] = tested on: liver tissue; conditions: literature; cited from earlier work

Molecule | hepatotrophic properties [1] | regeneration of liver tissue after partial hepatectomy [2] | metabolic effect on the liver [1]
insulin | exhibit hepatotrophic effects similar to those of the present compounds |  | 
Cn1cnc([N+](=O)[O-])c1Sc1ncnc2nc[nH]c12 [Azathioprine] |  | depress the regeneration of liver tissue | 
glucagon | does not have the hepatotrophic properties |  | powerful metabolic effect on the liver
